Reference: patent publication US20250100968A1, “BICYCLIC-HETEROCYCLE DERIVATIVES AND RELATED USES” (CENTESSA PHARMACEUTICALS (UK) LIMITED, priority 2022, published 2025)

Target: T1, human orexin type 2 receptor (hOX2R) (Homo sapiens, UniProt O43614)
T1 sequence (O43614 1-444): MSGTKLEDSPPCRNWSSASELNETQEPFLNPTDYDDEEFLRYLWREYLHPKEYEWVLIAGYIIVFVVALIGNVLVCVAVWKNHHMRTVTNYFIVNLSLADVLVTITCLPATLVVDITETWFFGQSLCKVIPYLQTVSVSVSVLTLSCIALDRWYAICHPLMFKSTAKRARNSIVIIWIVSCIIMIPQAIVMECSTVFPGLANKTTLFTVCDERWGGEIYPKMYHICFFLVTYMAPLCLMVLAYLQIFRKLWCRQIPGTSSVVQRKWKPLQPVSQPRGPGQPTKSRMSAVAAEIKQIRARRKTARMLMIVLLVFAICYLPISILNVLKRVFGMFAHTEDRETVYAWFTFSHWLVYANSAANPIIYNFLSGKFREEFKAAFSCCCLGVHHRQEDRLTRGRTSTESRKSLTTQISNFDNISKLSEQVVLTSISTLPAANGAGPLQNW
Test: cell-based
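Further: agonist activity in CHO cells stably expressing hOX2R, intracellular Ca2+ via Calcium 5 dye fluorescence area over 2 min, buffer-only as 0% and 10 nM orexin A as 100%.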

Description: Measurement of orexin type 2 receptor agonist activity. […] After removal of the medium, 50 μl of assay buffer 1 (0.1% bovine serum albumin (Sigma Aldrich), 20 mM HEPES (Molecular Dimensions), 250 mM probenecid (Sigma Aldrich), 1× Calcium 5 dye (Molecular Devices) in Hank's balanced salt solution (Invitrogen)) was added, and the cells were incubated for 60 min under the conditions of 37° C., 5% CO2. A test compound was dissolved in dimethyl sulfoxide (Sigma Aldrich) to 10 mM, and then diluted with assay buffer 2 (20 mM HEPES, Hank's balanced salt solution, 0.1% bovine serum albumin). For the reaction, a test compound solution (10 μl) was added using Fluorescent Imaging Plate Reader TETRA (FLIPR TETRA: manufactured by Molecular Devices), a fluorescence value (excitation wavelength 488 nm, measurement wavelength 570 nm) of each well was measured every one second for 2 min, and the agonist activity was determined using the area of the fluorescence value as an indicator of intracellular Ca^2+ concentration. The agonist activity of the test compound was calculated assuming that the fluorescence value of the well added with only the dilution buffer was 0% and the fluorescence value of the well added with 10 nM human orexin A (Tocris) buffer was 100%.

Row | Compound | EC50 [nM]
1 | O=C([C@H](O)CF)N1CC2(CC2)[C@H](NS(=O)(=O)CF)[C@@H]1Cc1cccc(-c2cc(F)cc(F)c2)c1F [compound 23, 1-fluoro-N-((6S,7S)-5-((S)-3-fluoro-2-hydroxypropanoyl)-6-((2,3′,5′-trifluoro-[1,1′-biphenyl]-3-yl)methyl)-5-azaspiro[2.4]heptan-7-yl)methanesulfonamide] | 1 to 10
2 | O=C([C@@H](O)C1CC1)N1CC2(CC2)[C@H](NS(=O)(=O)C(F)F)[C@@H]1Cc1cc(F)cc(-c2ccccc2)c1F [compound 27, N-((6S,7S)-5-((S)-2-cyclopropyl-2-hydroxyacetyl)-6-((2,5-difluoro-[1,1′-biphenyl]-3-yl)methyl)-5-azaspiro[2.4]heptan-7-yl)-1,1-difluoromethanesulfonamide] | 0.0631 to 1
3 | C[C@@](O)(CF)C(=O)N1CC2(CC2)[C@H](NS(=O)(=O)CF)[C@@H]1Cc1cccc(-c2ccccc2)c1F [compound 35, 1-fluoro-N-((6S,7S)-5-((S)-3-fluoro-2-hydroxy-2-methylpropanoyl)-6-((2-fluoro-[1,1′-biphenyl]-3-yl)methyl)-5-azaspiro[2.4]heptan-7-yl)methanesulfonamide] | 0.0631 to 1
4 | N#C[C@]1(C(=O)N2CC3(CC3)[C@H](NS(=O)(=O)CF)[C@@H]2Cc2cccc(-c3cccc(F)c3)c2F)CCO1 [compound 46, N-((6S,7S)-5-((S)-2-cyanooxetane-2-carbonyl)-6-((2,3′-difluoro-[1,1′-biphenyl]-3-yl)methyl)-5-azaspiro[2.4]heptan-7-yl)-1-fluoromethanesulfonamide] | 1 to 10
5 | O=C([C@H]1CCO1)N1CC2(CC2)[C@H](NS(=O)(=O)C2(F)CC2)[C@@H]1Cc1cccc(-c2cc(F)cc(F)c2)c1F [compound 36, 1-fluoro-N-((6S,7S)-5-((R)-oxetane-2-carbonyl)-6-((2,3′,5′-trifluoro-[1,1′-biphenyl]-3-yl)methyl)-5-azaspiro[2.4]heptan-7-yl)cyclopropane-1-sulfonamide] | 0.0631 to 1
6 | C[C@@H](F)C(=O)N1CC2(CC2)[C@H](NS(=O)(=O)CF)[C@@H]1Cc1cc(F)cc(-c2cccc(F)c2)c1F [compound 21, 1-fluoro-N-((6S,7S)-5-((R)-2-fluoropropanoyl)-6-((2,3′,5-trifluoro-[1,1′-biphenyl]-3-yl)methyl)-5-azaspiro[2.4]heptan-7-yl)methanesulfonamide] | 0.0631 to 1
7 | N#C[C@]1(C(=O)N2CC3(CC3)[C@H](NS(=O)(=O)CF)[C@@H]2Cc2cccc(-c3cc(F)cc(F)c3)c2F)CCO1 [compound 47, N-((6S,7S)-5-((S)-2-cyanooxetane-2-carbonyl)-6-((2,3′,5′-trifluoro-[1,1′-biphenyl]-3-yl)methyl)-5-azaspiro[2.4]heptan-7-yl)-1-fluoromethanesulfonamide] | 1 to 10
8 | C[C@@](O)(C(=O)N1CC2(CC2)[C@H](NS(=O)(=O)CF)[C@@H]1Cc1cccc(-c2ccccc2)c1F)C1CC1 [compound 2, N-((6S,7S)-5-((S)-2-cyclopropyl-2-hydroxypropanoyl)-6-((2-fluoro-[1,1′-biphenyl]-3-yl)methyl)-5-azaspiro[2.4]heptan-7-yl)-1-fluoromethanesulfonamide] | 10 to 100
9 | CC[C@@](C)(O)C(=O)N1CC2(CC2)[C@H](NS(=O)(=O)CF)[C@@H]1Cc1cccc(-c2cccc(F)c2)c1F [compound 30, N-((6S,7S)-6-((2,3′-difluoro-[1,1′-biphenyl]-3-yl)methyl)-5-((R)-2-hydroxy-2-methylbutanoyl)-5-azaspiro[2.4]heptan-7-yl)-1-fluoromethanesulfonamide] | 0.0631 to 1
10 | O=C(C(O)CF)N1CC2(CC2)[C@H](NS(=O)(=O)C(F)F)[C@@H]1Cc1cccc(-c2cccc(F)c2)c1F (mixture of isomers) [compound 29, N-((6S,7S)-6-((2,3′-difluoro-[1,1′-biphenyl]-3-yl)methyl)-5-((RS)-3-fluoro-2-hydroxypropanoyl)-5-azaspiro[2.4]heptan-7-yl)-1,1-difluoromethanesulfonamide] | 0.0631 to 1

Other lines, results leading:

Row | EC50 [nM] | Compound
11 | 1 to 10 | C[C@@H](C#N)C(=O)N1CC2(CC2)[C@H](NS(=O)(=O)CF)[C@@H]1Cc1cccc(-c2cc(F)cc(F)c2)c1F [compound 63, N-((6S,7S)-5-((S)-2-cyanopropanoyl)-6-((2,3′,5′-trifluoro-[1,1′-biphenyl]-3-yl)methyl)-5-azaspiro[2.4]heptan-7-yl)-1-fluoromethanesulfonamide]
12 | 1 to 10 | CO[C@@H](C)C(=O)N1CC2(CC2)[C@H](NS(=O)(=O)C(F)F)[C@@H]1Cc1cccc(-c2cc(F)cc(F)c2)c1F [compound 65, 1,1-difluoro-N-((6S,7S)-5-((S)-2-methoxypropanoyl)-6-((2,3′,5′-trifluoro-[1,1′-biphenyl]-3-yl)methyl)-5-azaspiro[2.4]heptan-7-yl)methanesulfonamide]
13 | 1 to 10 | O=C([C@H]1CCCO1)N1CC2(CC2)[C@H](NS(=O)(=O)C(F)F)[C@@H]1Cc1cccc(-c2cc(F)cc(F)c2)c1F [compound 50, 1,1-difluoro-N-((6S,7S)-5-((R)-tetrahydrofuran-2-carbonyl)-6-((2,3′,5′-trifluoro-[1,1′-biphenyl]-3-yl)methyl)-5-azaspiro[2.4]heptan-7-yl)methanesulfonamide]
14 | 0.0631 to 1 | CC[C@@](C)(O)C(=O)N1CC2(CC2)[C@H](NS(=O)(=O)C(F)F)[C@@H]1Cc1cccc(-c2cc(F)cc(F)c2)c1F [compound 77, 1,1-difluoro-N-((6S,7S)-5-((R)-2-hydroxy-2-methylbutanoyl)-6-((2,3′,5′-trifluoro-[1,1′-biphenyl]-3-yl)methyl)-5-azaspiro[2.4]heptan-7-yl)methanesulfonamide]
15 | 1 to 10 | CO[C@H](C)C(=O)N1CC2(CC2)[C@H](NS(=O)(=O)CF)[C@@H]1Cc1cccc(-c2cc(F)cc(F)c2)c1F [compound 68, 1-fluoro-N-((6S,7S)-5-((R)-2-methoxypropanoyl)-6-((2,3′,5′-trifluoro-[1,1′-biphenyl]-3-yl)methyl)-5-azaspiro[2.4]heptan-7-yl)methanesulfonamide]
16 | 0.0631 to 1 | C[C@](O)(CF)C(=O)N1CC2(CC2)[C@H](NS(=O)(=O)C2(F)CC2)[C@@H]1Cc1cccc(-c2ccccc2)c1F [compound 91, 1-fluoro-N-((6S,7S)-5-((R)-3-fluoro-2-hydroxy-2-methylpropanoyl)-6-((2-fluoro-[1,1′-biphenyl]-3-yl)methyl)-5-azaspiro[2.4]heptan-7-yl)cyclopropane-1-sulfonamide]
17 | 1 to 10 | COC1CN(C(=O)N2CC3(CC3)[C@H](NS(=O)(=O)C(F)F)[C@@H]2Cc2cccc(-c3cc(F)cc(F)c3)c2F)C1 [compound 52, 1,1-difluoro-N-((6S,7S)-5-(3-methoxyazetidine-1-carbonyl)-6-((2,3′,5′-trifluoro-[1,1′-biphenyl]-3-yl)methyl)-5-azaspiro[2.4]heptan-7-yl)methanesulfonamide]
18 | 1 to 10 | C[C@@H](F)S(=O)(=O)N[C@@H]1[C@H](Cc2cc(F)cc(-c3ccccc3)c2F)N(C(=O)[C@H]2CCO2)CC12CC2 [compound 55, (S)-N-((6S,7S)-6-((2,5-difluoro-[1,1′-biphenyl]-3-yl)methyl)-5-((R)-oxetane-2-carbonyl)-5-azaspiro[2.4]heptan-7-yl)-1-fluoroethane-1-sulfonamide]
19 | 1 to 10 | C[C@@H](C#N)C(=O)N1CC2(CC2)[C@H](NS(=O)(=O)C(F)F)[C@@H]1Cc1cccc(-c2cc(F)cc(F)c2)c1F [compound 70, N-((6S,7S)-5-((S)-2-cyanopropanoyl)-6-((2,3′,5′-trifluoro-[1,1′-biphenyl]-3-yl)methyl)-5-azaspiro[2.4]heptan-7-yl)-1,1-difluoromethanesulfonamide]
20 | 1 to 10 | N#C[C@]1(C(=O)N2CC3(CC3)[C@H](NS(=O)(=O)CF)[C@@H]2Cc2cc(F)cc(-c3ccccc3)c2F)C[C@@H](F)C1 [compound 90, N-((6S,7S)-5-((1s,3R)-1-cyano-3-fluorocyclobutane-1-carbonyl)-6-((2,5-difluoro-[1,1′-biphenyl]-3-yl)methyl)-5-azaspiro[2.4]heptan-7-yl)-1-fluoromethanesulfonamide]
21 | 0.0631 to 1 | C[C@H](F)S(=O)(=O)N[C@@H]1[C@H](Cc2cc(F)cc(-c3ccccc3)c2F)N(C(=O)[C@H]2CCO2)CC12CC2 [compound 56, (R)-N-((6S,7S)-6-((2,5-difluoro-[1,1′-biphenyl]-3-yl)methyl)-5-((R)-oxetane-2-carbonyl)-5-azaspiro[2.4]heptan-7-yl)-1-fluoroethane-1-sulfonamide]
22 | 0.0631 to 1 | N#C[C@]1(C(=O)N2CC3(CC3)[C@H](NS(=O)(=O)C(F)F)[C@@H]2Cc2cccc(-c3cc(F)cc(F)c3)c2F)CCO1 [compound 48, N-((6S,7S)-5-((S)-2-cyanooxetane-2-carbonyl)-6-((2,3′,5′-trifluoro-[1,1′-biphenyl]-3-yl)methyl)-5-azaspiro[2.4]heptan-7-yl)-1,1-difluoromethanesulfonamide]
23 | 1 to 10 | CC(F)(F)CNC(=O)N1CC2(CC2)[C@H](NS(=O)(=O)CF)[C@@H]1Cc1cc(F)cc(-c2ccccc2)c1F [compound 74, (6S,7S)-6-((2,5-difluoro-[1,1′-biphenyl]-3-yl)methyl)-N-(2,2-difluoropropyl)-7-((fluoromethyl)sulfonamido)-5-azaspiro[2.4]heptane-5-carboxamide]
24 | 0.0631 to 1 | C[C@H](CF)NC(=O)N1CC2(CC2)[C@H](NS(=O)(=O)C2(F)CC2)[C@@H]1Cc1cccc(-c2ccccc2)c1F [compound 86, (6S,7S)-6-((2-fluoro-[1,1′-biphenyl]-3-yl)methyl)-7-((1-fluorocyclopropane)-1-sulfonamido)-N-((R)-1-fluoropropan-2-yl)-5-azaspiro[2.4]heptane-5-carboxamide]
